From US6737383B1, “Herbicidal oxadiazolidines” (priority 1999, dated 2004)

Key:
blackgrass = experiment: Test B pre/postemergence blackgrass; assay type: in vivo, Alopecurus myosuroides; settings: for Blackgrass plant response rating: scale of 0 to 10 where 0 is no effect and 10 is complete control
Procedure, shortened: (§1)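 Response is a visual 0-to-10 score relative to untreated plants, where 0 means no effect and 10 means complete control, taken twelve to sixteen days after application. Treatments went onto soil at planting and onto foliage of 1- to 4-leaf plants, using a surfactant-containing non-phytotoxic solvent.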

surinam grass = experiment: Test B pre/postemergence surinam grass; assay type: in vivo, Brachiaria decumbens; settings: for B. signalgrass plant response rating: scale of 0 to 10 where 0 is no effect and 10 is complete control
Procedure, shortened: as §1

cocklebur = experiment: Test B pre/postemergence cocklebur; assay type: in vivo, Xanthium strumarium; settings: for Cocklebur plant response rating: scale of 0 to 10 where 0 is no effect and 10 is complete control
Procedure, shortened: as §1

corn = experiment: Test B pre/postemergence corn; assay type: in vivo, Zea mays; settings: for Corn plant response rating: scale of 0 to 10 where 0 is no effect and 10 is complete control
Procedure, shortened: as §1

crabgrass = experiment: Test B pre/postemergence crabgrass; assay type: in vivo, Digitaria sanguinalis; settings: for Crabgrass plant response rating: scale of 0 to 10 where 0 is no effect and 10 is complete control
Procedure, shortened: as §1

giant foxtail = experiment: Test B pre/postemergence giant foxtail; assay type: in vivo, Setaria faberii; settings: for Giant foxtail plant response rating: scale of 0 to 10 where 0 is no effect and 10 is complete control
Procedure, shortened: as §1

morningglory = experiment: Test B pre/postemergence morningglory; assay type: in vivo, Ipomoea hederacea; settings: for Morningglory plant response rating: scale of 0 to 10 where 0 is no effect and 10 is complete control
Procedure, shortened: as §1

pigweed = experiment: Test B pre/postemergence pigweed; assay type: in vivo, Amaranthus retroflexus; settings: for Redroot pigweed plant response rating: scale of 0 to 10 where 0 is no effect and 10 is complete control
Procedure, shortened: as §1

rape = experiment: Test B pre/postemergence rape; assay type: in vivo, Brassica napus; settings: for Rape plant response rating: scale of 0 to 10 where 0 is no effect and 10 is complete control
Procedure, shortened: as §1

sugar beet = experiment: Test B pre/postemergence sugar beet; assay type: in vivo, Beta vulgaris; settings: for Sugarbeets plant response rating: scale of 0 to 10 where 0 is no effect and 10 is complete control
Procedure, shortened: as §1

velvetleaf = experiment: Test B pre/postemergence velvetleaf; assay type: in vivo, Abutilon theophrasti; settings: for Velvetleaf plant response rating: scale of 0 to 10 where 0 is no effect and 10 is complete control
Procedure, shortened: as §1

wheat = experiment: Test B pre/postemergence wheat; assay type: in vivo, Triticum aestivum; settings: for Wheat plant response rating: scale of 0 to 10 where 0 is no effect and 10 is complete control
Procedure, shortened: as §1

purple nutsedge = experiment: Test B pre/postemergence purple nutsedge; assay type: in vivo, Cyperus rotundus; settings: for Nutsedge plant response rating: scale of 0 to 10 where 0 is no effect and 10 is complete control
Procedure, shortened: as §1

rice = experiment: Test B flood test rice; assay type: in vivo, Oryza sativa
Procedure, shortened: (§2)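 Each value is a visual injury score relative to controls, with 10 meaning complete control and 0 no effect. Evaluation took place twelve to sixteen days after the 2-leaf-stage plants were treated and kept in the greenhouse.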

smallflower flatsedge = experiment: Test B flood test smallflower flatsedge; assay type: in vivo, Cyperus difformis
Procedure, shortened: as §2

duck salad = experiment: Test B flood test duck salad; assay type: in vivo, Heteranthera limosa
Procedure, shortened: as §2

[1] = Postemergence, Rate 125 g/ha, scale 0 to 10, 0 is no effect, 10 is complete control
[2] = Postemergence, Rate 250 g/ha, scale 0 to 10, 0 is no effect, 10 is complete control
[3] = Preemergence, Rate 62 g/ha, scale 0 to 10 (0 no effect, 10 complete control)
[4] = Rate 500 g/ha, Postemergence, scale 0 to 10, 0 no effect, 10 complete control
[5] = Rate 62 g/ha, flood test species, Pre-emergence, visual evaluation after twelve to sixteen days
[6] = Rate 125 g/ha, under heading Pre-emergence, flood test species, visual evaluation after twelve to sixteen days
[7] = Rate 250 g/ha, Pre-emergence, flood-test species, scale 0 to 10, 0 is no effect, 10 is complete control
[8] = Rate 500 g/ha, Pre-emergence, flood test species, scale 0 to 10 (0 no effect, 10 complete control)

CC(C)N(C(=O)n1oc(=O)n(N2C(C)CCCC2C)c1=O)c1ccc(F)cc1F (centres unmarked) [Compound 383]
Plant response rating, Blackgrass (blackgrass; [1]): 0 | Plant response rating, Blackgrass (blackgrass; [2]): 2 | Plant response rating, Blackgrass (blackgrass; [3]): 0 | Blackgrass plant response rating (0 to 10 scale) (blackgrass; Preemergence, Rate 125 g/ha): 0 | Blackgrass plant response rating (blackgrass; Preemergence, Rate 250 g/ha): 2 | Blackgrass plant response rating (blackgrass; Preemergence, Rate 500 g/ha): 7 | Blackgrass plant response rating (blackgrass; Rate 62 g/ha, Postemergence): 0 | Plant response rating, Blackgrass (blackgrass; [4]): 8 | Plant response rating, B. signalgrass (surinam grass; [1]): 0 | Plant response rating, B. signalgrass (surinam grass; [2]): 0 | Plant response rating, B. signalgrass (surinam grass; [3]): 0 | B. signalgrass plant response rating (0 to 10 scale, 0 is no effect, 10 is complete control) (surinam grass; Preemergence, Rate 125 g/ha): 0 | B. signalgrass plant response rating (surinam grass; Preemergence, Rate 250 g/ha): 0 | B. signalgrass plant response rating (surinam grass; Preemergence, Rate 500 g/ha): 6 | B. signalgrass plant response rating (surinam grass; Rate 62 g/ha, Postemergence): 0 | Plant response rating, B. signalgrass (surinam grass; [4]): 0 | Plant response rating, Cocklebur (cocklebur; [1]): 0 | Plant response rating, Cocklebur (cocklebur; [2]): 0 | Plant response rating, Cocklebur (cocklebur; [3]): 0 | Cocklebur plant response rating (0 to 10 scale) (cocklebur; Preemergence, Rate 125 g/ha): 0 | Cocklebur plant response rating (cocklebur; Preemergence, Rate 250 g/ha): 0 | Cocklebur plant response rating (cocklebur; Preemergence, Rate 500 g/ha): 0 | Cocklebur plant response rating (cocklebur; Rate 62 g/ha, Postemergence): 0 | Plant response rating, Cocklebur (cocklebur; [4]): 0 | Plant response rating, Corn (corn; [1]): 0 | Plant response rating, Corn (corn; [2]): 0 | Plant response rating, Corn (corn; [3]): 0 | Corn plant response rating (0 to 10 scale) (corn; Preemergence, Rate 125 g/ha): 0 | Corn plant response rating (corn; Preemergence, Rate 250 g/ha): 0 | Corn plant response rating (corn; Preemergence, Rate 500 g/ha): 0 | Corn plant response rating (corn; Rate 62 g/ha, Postemergence): 0 | Plant response rating, Corn (corn; [4]): 0 | Plant response rating, Crabgrass (crabgrass; [1]): 1 | Plant response rating, Crabgrass (crabgrass; [2]): 4 | Plant response rating, Crabgrass (crabgrass; [3]): 6 | Crabgrass plant response rating (0 to 10 scale) (crabgrass; Preemergence, Rate 125 g/ha): 8 | Crabgrass plant response rating (crabgrass; Preemergence, Rate 250 g/ha): 9 | Crabgrass plant response rating (crabgrass; Preemergence, Rate 500 g/ha): 10 | Crabgrass plant response rating (crabgrass; Rate 62 g/ha, Postemergence): 0 | Plant response rating, Crabgrass (crabgrass; [4]): 4 | Plant response rating, Giant foxtail (giant foxtail; [1]): 0 | Plant response rating, Giant foxtail (giant foxtail; [2]): 6 | Plant response rating, Giant foxtail (giant foxtail; [3]): 0 | Giant foxtail plant response rating (0 to 10 scale) (giant foxtail; Preemergence, Rate 125 g/ha): 7 | Giant foxtail plant response rating (giant foxtail; Preemergence, Rate 250 g/ha): 10 | Giant foxtail plant response rating (giant foxtail; Preemergence, Rate 500 g/ha): 10 | Giant foxtail plant response rating (giant foxtail; Rate 62 g/ha, Postemergence): 0 | Plant response rating, Giant foxtail (giant foxtail; [4]): 6 | Plant response rating, Morningglory (morningglory; [1]): 0 | Plant response rating, Morningglory (morningglory; [2]): 0 | Plant response rating, Morningglory (morningglory; [3]): 0 | Morningglory plant response rating (0 to 10 scale) (morningglory; Preemergence, Rate 125 g/ha): 0 | Morningglory plant response rating (morningglory; Preemergence, Rate 250 g/ha): 0 | Morningglory plant response rating (morningglory; Preemergence, Rate 500 g/ha): 0 | Morningglory plant response rating (morningglory; Rate 62 g/ha, Postemergence): 0 | Plant response rating, Morningglory (morningglory; [4]): 0 | Plant response rating, Redroot pigweed (pigweed; [1]): 0 | Plant response rating, Redroot pigweed (pigweed; [2]): 0 | Plant response rating, Redroot pigweed (pigweed; [3]): 0 | Redroot pigweed plant response rating (0 to 10 scale) (pigweed; Preemergence, Rate 125 g/ha): 0 | Redroot pigweed plant response rating (pigweed; Preemergence, Rate 250 g/ha): 0 | Redroot pigweed plant response rating (pigweed; Preemergence, Rate 500 g/ha): 3 | Redroot pigweed plant response rating (pigweed; Rate 62 g/ha, Postemergence): 0 | Plant response rating, Redroot pigweed (pigweed; [4]): 0 | Plant response rating, Rape (rape; [1]): 0 | Plant response rating, Rape (rape; [2]): 0 | Plant response rating, Rape (rape; [3]): 0 | Rape plant response rating (0 to 10 scale) (rape; Preemergence, Rate 125 g/ha): 0 | Rape plant response rating (rape; Preemergence, Rate 250 g/ha): 0 | Rape plant response rating (rape; Preemergence, Rate 500 g/ha): 0 | Rape plant response rating (rape; Rate 62 g/ha, Postemergence): 0 | Plant response rating, Rape (rape; [4]): 0 | Plant response rating, Sugarbeets (sugar beet; [1]): 0 | Plant response rating, Sugarbeets (sugar beet; [2]): 0 | Plant response rating, Sugarbeets (sugar beet; [3]): 0 | Sugarbeets plant response rating (0 to 10 scale) (sugar beet; Preemergence, Rate 125 g/ha): 0 | Sugarbeets plant response rating (sugar beet; Preemergence, Rate 250 g/ha): 0 | Sugarbeets plant response rating (sugar beet; Preemergence, Rate 500 g/ha): 0 | Sugarbeets plant response rating (sugar beet; Rate 62 g/ha, Postemergence): 0 | Plant response rating, Sugarbeets (sugar beet; [4]): 0 | Plant response rating, Velvetleaf (velvetleaf; [1]): 0 | Plant response rating, Velvetleaf (velvetleaf; [2]): 0 | Plant response rating, Velvetleaf (velvetleaf; [3]): 0 | Velvetleaf plant response rating (0 to 10 scale) (velvetleaf; Preemergence, Rate 125 g/ha): 0 | Velvetleaf plant response rating (velvetleaf; Preemergence, Rate 250 g/ha): 0 | Velvetleaf plant response rating (velvetleaf; Preemergence, Rate 500 g/ha): 0 | Velvetleaf plant response rating (velvetleaf; Rate 62 g/ha, Postemergence): 0 | Plant response rating, Velvetleaf (velvetleaf; [4]): 0 | Plant response rating, Wheat (wheat; [1]): 0 | Plant response rating, Wheat (wheat; [2]): 0 | Plant response rating, Wheat (wheat; [3]): 0 | Wheat plant response rating (0 to 10 scale) (wheat; Preemergence, Rate 125 g/ha): 0 | Wheat plant response rating (wheat; Preemergence, Rate 250 g/ha): 0 | Wheat plant response rating (wheat; Preemergence, Rate 500 g/ha): 0 | Wheat plant response rating (wheat; Rate 62 g/ha, Postemergence): 0 | Plant response rating, Wheat (wheat; [4]): 0 | Plant response rating, Nutsedge (purple nutsedge; [1]): 0 | Plant response rating, Nutsedge (purple nutsedge; [2]): 0 | Plant response rating, Nutsedge (purple nutsedge; [3]): 0 | Nutsedge plant response rating (0 to 10 scale) (purple nutsedge; Preemergence, Rate 125 g/ha): 0 | Nutsedge plant response rating (purple nutsedge; Preemergence, Rate 250 g/ha): 0 | Nutsedge plant response rating (purple nutsedge; Preemergence, Rate 500 g/ha): 0 | Nutsedge plant response rating (purple nutsedge; Rate 62 g/ha, Postemergence): 0 | Plant response rating, Nutsedge (purple nutsedge; [4]): 0 | Plant response rating, Rice (0 to 10 scale, 0 is no effect, 10 is complete control) (rice; [5]): 0 | Rice plant response rating (0 to 10 scale, 0 is no effect, 10 is complete control) (rice; [6]): 0 | Rice plant response rating (rice; [7]): 0 | Rice plant response rating (rice; [8]): 0 | Plant response rating, S. Flatsedge (0 to 10 scale, 0 is no effect, 10 is complete control) (smallflower flatsedge; [5]): 0 | S. Flatsedge plant response rating (0 to 10 scale, 0 is no effect, 10 is complete control) (smallflower flatsedge; [6]): 0 | S. Flatsedge plant response rating (smallflower flatsedge; [7]): 0 | S. Flatsedge plant response rating (smallflower flatsedge; [8]): 0 | Plant response rating, Ducksalad (0 to 10 scale, 0 is no effect, 10 is complete control) (duck salad; [5]): 0 | Ducksalad plant response rating (0 to 10 scale, 0 is no effect, 10 is complete control) (duck salad; [6]): 0 | Ducksalad plant response rating (duck salad; [7]): 0 | Ducksalad plant response rating (duck salad; [8]): 0
